In patent publication US20260265244A1, “HETEROCYCLIC COMPOUNDS AS STING ANTAGONISTS” (Boehringer Ingelheim International GmbH, priority 2022, published 2026):

molecular target: T1, cGAMP binding domain of wild-type (GRR) human STING, residues 155-341 (Homo sapiens, UniProt Q86WV6, H232R); assay: Increase of stability of STING protein against thermal denaturation, Differential Scanning Fluorimetry (DSF)
T1 construct: His-TEV-hSTING (WT); TEV protease cleavage site (N); made in house; host or cells: E. coli BL21 DE3
Description: Dye fluorescence is quenched in aqueous environment and increases upon association of the dye with the hydrophobic parts of the unfolding protein. […] The inflection point of the curve represents the “melting” temperature of the protein (Tm) which is calculated numerically using the Boltzmann equation.
Method: The thermal stability of the STING protein was measured using a specific expression construct of the cGAMP binding domain of wild-type (GRR) human STING comprising residues 155-341 and a N-terminal 8×His-tag (SEQ ID NO: 3) in assay buffer containing 20 mM Tris, 150 mM NaCl at pH7.5.
The assay uses Hard-Shell® PCR Plates 384-Well CLR/WHT (Catalog #HSP3805, BIO-RAD), Microseal® ‘B’ Adhesive Seals for PCR Plates (Catalog #MSB-1001, BIO-RAD) and was run on a CFX384 Real-Time System (Bio-Rad).
A DMSO stock solution of SYPRO orange (SIGMA S5692-500UL) was prepared.
Compound stock solutions (10 mM in DMSO) were diluted 1:2 in DMSO to an intermediate compound concentration of 5 mM and then further diluted 1:40 in assay buffer resulting in a compound concentration of 125 μM and 2.5% DMSO.
Fluorescent dye stock solution (5000×SYPRO Orange) was then mixed with target protein and buffer to a concentration of 15 uM Protein and 25×SYPRO Orange. 2 ul of this protein-dye-mixture was added to 8 ul compound solution. Final volume was 10 uL. 3-6 well positions were used as negative control (protein with 2% DMSO). The plates were prepared for duplicate measurement and centrifuged for 2 min at 1000 g. In the measurement, 160 cycles of 0.5° C. were used (temperature ramp 15 s/cycle, 15° C. to 95° C.).
Final Assay concentrations for compound characterization were as follows: 100 uM compound, 3 uM target protein, 5×SYPRO Orange, 2% DMSO in 10 ul. All dispensing steps were performed using a HamiltonStar pipetting robot (Hamilton).
Dissociation curves were processed in Bio-Rad CFX Manager. Peak type was set to “negative”. Compound codes for screen were assigned in the plate layout.
Two replicates of TM measurements were averaged, and the standard deviation was calculated. In cases of SD>1.5° C. the measurement was repeated.
The melting point (Tm) obtained for STING protein alone was subtracted from T obtained for protein incubated with ligand to generate ΔTm values.
Protein production and purification: The protein used for the biophysical experiments was a recombinant human STING protein comprising its cytosolic ectodomain. A codon optimized DNA sequence (for expression in Escherichia coli) encoding amino acid residues 155 to 341 (Swiss Prot Q86WV6) of human STING (WT) was synthesized by GeneArt (Regensburg, Germany) and inserted into a pET17b E. coli expression vector. The protein construct encodes an N-terminal 8×His-tag (SEQ ID NO: 3) followed by tobacco etch virus protease (TEV) cleavage site and the above STING gene sequence. The resulting protein sequence for the used STING variant is listed below:
For expression of recombinant human STING above construct was transformed into E. coli BL21 DE3 strain and grown in shake flasks in LB-medium at 37° C. Expression was induced by addition of isopropyl β-D-1-thiogalactopyranoside to a final concentration of 1 mM and cultures shaken overnight. Cell pellets were centrifuged and stored at −70° C. until further use. Protein was purified by cell thawing in lysis buffer (20 mM TRIS-HCl, pH 8, 300 mM NaCl, 2 mM mercaptoethanol, 20 mM imidazole, Complete Protease Inhibitor (Roche) and DNase (Roche)), followed by metal affinity purification using Ni-NTA resins and elution buffer consisting of 20 mM TRIS-HCl, pH 8, 300 mM NaCl, 2 mM mercaptoethanol, 300 mM imidazole and size exclusion chromatography in running buffer (20 mM TRIS-HCl, pH 8, 100 mM NaCl, 2 mM DTT). The peak fraction was collected and concentrated to 2.5 mg/mL.

T1 sequence (Q86WV6 with tags, fused parts or gaps H232R): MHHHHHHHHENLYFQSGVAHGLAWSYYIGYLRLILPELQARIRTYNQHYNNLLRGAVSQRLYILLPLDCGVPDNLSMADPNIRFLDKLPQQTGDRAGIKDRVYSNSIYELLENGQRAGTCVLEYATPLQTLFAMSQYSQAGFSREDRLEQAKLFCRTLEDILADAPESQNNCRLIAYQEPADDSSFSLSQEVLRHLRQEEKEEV

SMILES	DSF
Cc1nc2nn(CCN3CCOCC3)cc2cc1-n1nc(-c2cccc3nn(C[C@H](O)c4ccccc4)cc23)c(C(C)C)c1C [Example 1, (1R)-2-[4-(5-methyl-1-{6-methyl-2-[2-(morpholin-4-yl)ethyl]-2H-pyrazolo[3,4-b]pyridin-5-yl}-4-(propan-2-yl)-1H-pyrazol-3-yl)-2H-indazol-2-yl]-1-phenylethan-1-ol]	26 K
Cc1nc2nn(CCCC#N)cc2cc1-n1nc(-c2cccc3nn(C[C@H](O)c4ccccc4)cc23)c(C(C)C)c1C [Example 2, 4-[5-(3-{2-[(2R)-2-hydroxy-2-phenylethyl]-2H-indazol-4-yl}-5-methyl-4-(propan-2-yl)-1H-pyrazol-1-yl)-6-methyl-2H-pyrazolo[3,4-b]pyridin-2-yl]butanenitrile]	28 K
Cc1nc2nn(Cc3cccnc3)cc2cc1-n1nc(-c2cccc3nn(C[C@H](O)c4ccccc4)cc23)c(C(C)C)c1C [Example 6, (1R)-2-[4-(5-methyl-1-{6-methyl-2-[(pyridin-3-yl)methyl]-2H-pyrazolo[3,4-b]pyridin-5-yl}-4-(propan-2-yl)-1H-pyrazol-3-yl)-2H-indazol-2-yl]-1-phenylethan-1-ol]	29 K
Cc1nc2nn(CCCN3CCN(C)CC3)cc2cc1-n1nc(-c2cccc3nn(C[C@H](O)c4ccccc4)cc23)c(C(C)C)c1C [Example 7, (1R)-2-[4-(5-methyl-1-{6-methyl-2-[3-(4-methylpiperazin-1-yl)propyl]-2H-pyrazolo[3,4-b]pyridin-5-yl}-4-(propan-2-yl)-1H-pyrazol-3-yl)-2H-indazol-2-yl]-1-phenylethan-1-ol]	25 K
Cc1nc2nn(C)cc2cc1-n1nc(-c2cccc3nn(C[C@H](OCCO)c4ccccc4)cc23)c(C(C)C)c1C [Example 8, 2-[(1R)-2-[4-(1-{2,6-dimethyl-2H-pyrazolo[3,4-b]pyridin-5-yl}-5-methyl-4-(propan-2-yl)-1H-pyrazol-3-yl)-2H-indazol-2-yl]-1-phenylethoxy]ethan-1-ol]	24 K
COc1ccc(Cn2cc3cc(-c4nc(-c5cccc6nn(C[C@H](O)c7ccccc7)cc56)c(C5CC5)n4C)c(C4CC4)nc3n2)cc1 [Example 9, (1R)-2-[4-(5-cyclopropyl-2-{6-cyclopropyl-2-[(4-methoxyphenyl)methyl]-2H-pyrazolo[3,4-b]pyridin-5-yl}-1-methyl-1H-imidazol-4-yl)-2H-indazol-2-yl]-1-phenylethan-1-ol]	33 K
Cn1c(-c2cc3cn(CCN4CCOCC4)nc3nc2C2CC2)nc(-c2cccc3nn(C[C@H](O)c4ccccc4)cc23)c1C1CC1 [Example 10, (1R)-2-[4-(5-cyclopropyl-2-{6-cyclopropyl-2-[2-(morpholin-4-yl)ethyl]-2H-pyrazolo[3,4-b]pyridin-5-yl}-1-methyl-1H-imidazol-4-yl)-2H-indazol-2-yl]-1-phenylethan-1-ol]	30 K
Cc1nc2nn(CCCCO)cc2cc1-n1nc(-c2cccc3nn(C[C@H](O)c4ccccc4)cc23)c(C(C)C)c1C [Example 12, 4-[5-(3-{2-[(2R)-2-hydroxy-2-phenylethyl]-2H-indazol-4-yl}-5-methyl-4-(propan-2-yl)-1H-pyrazol-1-yl)-6-methyl-2H-pyrazolo[3,4-b]pyridin-2-yl]butan-1-ol]	29 K
Cc1c(C(C)C)c(-c2cccc3nn(C[C@H](O)c4ccccc4)cc23)nn1-c1cc2cn(C)nc2nc1C1CCCO1 (stereo partly drawn) [Example 13, (1R)-2-(4-{5-methyl-1-[2-methyl-6-(oxolan-2-yl)-2H-pyrazolo[3,4-b]pyridin-5-yl]-4-(propan-2-yl)-1H-pyrazol-3-yl}-2H-indazol-2-yl)-1-phenylethan-1-ol]	30 K
Cc1nc2nn(C3CCOC3)cc2cc1-n1nc(-c2cccc3nn(C[C@H](O)c4ccccc4)cc23)c(C(C)C)c1C (stereo partly drawn) [Example 14, (1R)-2-(4-{5-methyl-1-[6-methyl-2-(oxolan-3-yl)-2H-pyrazolo[3,4-b]pyridin-5-yl]-4-(propan-2-yl)-1H-pyrazol-3-yl}-2H-indazol-2-yl)-1-phenylethan-1-ol]	28 K
Cc1c(C(C)C)c(-c2cccc3nn(C[C@H](O)c4ccc(OCCN5CCOCC5)cc4)cc23)nn1-c1cc2cn(C)nc2nc1C1CC1 [Example 15, (1R)-2-[4-(1-{6-cyclopropyl-2-methyl-2H-pyrazolo[3,4-b]pyridin-5-yl}-5-methyl-4-(propan-2-yl)-1H-pyrazol-3-yl)-2H-indazol-2-yl]-1-{4-[2-(morpholin-4-yl)ethoxy]phenyl}ethan-1-ol]	30 K
COCCn1cc2cc(-n3nc(-c4cccc5nn(C[C@H](O)c6ccccc6)cc45)c(C(C)C)c3C)c(C)nc2n1 [Example 16, (1R)-2-(4-{1-[2-(2-methoxyethyl)-6-methyl-2H-pyrazolo[3,4-b]pyridin-5-yl]-5-methyl-4-(propan-2-yl)-1H-pyrazol-3-yl}-2H-indazol-2-yl)-1-phenylethan-1-ol]	28 K
COCc1nc2nn(C)cc2cc1-n1nc(-c2cccc3nn(C[C@H](O)c4ccccc4)cc23)c(C(C)C)c1C [Example 17, (1R)-2-(4-{1-[6-(methoxymethyl)-2-methyl-2H-pyrazolo[3,4-b]pyridin-5-yl]-5-methyl-4-(propan-2-yl)-1H-pyrazol-3-yl}-2H-indazol-2-yl)-1-phenylethan-1-ol]	27 K
Cc1nc2nn(C(C)C)cc2cc1-n1nc(-c2cccc3nn(C[C@H](O)c4ccccc4)cc23)c(C(C)C)c1C [Example 18, (1R)-2-(4-{5-methyl-1-[6-methyl-2-(propan-2-yl)-2H-pyrazolo[3,4-b]pyridin-5-yl]-4-(propan-2-yl)-1H-pyrazol-3-yl}-2H-indazol-2-yl)-1-phenylethan-1-ol]	28 K
Cc1c(C(C)C)c(-c2cccc3nn(C[C@H](O)c4ccccc4)cc23)nn1-c1cc2cn(C)nc2nc1C(C)O (stereo partly drawn) [Example 19, (1R)-2-(4-{1-[6-(1-hydroxyethyl)-2-methyl-2H-pyrazolo[3,4-b]pyridin-5-yl]-5-methyl-4-(propan-2-yl)-1H-pyrazol-3-yl}-2H-indazol-2-yl)-1-phenylethan-1-ol]	29 K
CSc1nc2nn(C)cc2cc1-n1nc(-c2cccc3nn(C[C@H](O)c4ccccc4)cc23)c(C(C)C)c1C [Example 20, (1R)-2-(4-{5-methyl-1-[2-methyl-6-(methylsulfanyl)-2H-pyrazolo[3,4-b]pyridin-5-yl]-4-(propan-2-yl)-1H-pyrazol-3-yl}-2H-indazol-2-yl)-1-phenylethan-1-ol]	27 K
Cc1nc2nn(CCCN3CCCC3=O)cc2cc1-n1nc(-c2cccc3nn(C[C@H](O)c4ccccc4)cc23)c(C(C)C)c1C [Example 21, 1-{3-[5-(3-{2-[(2R)-2-hydroxy-2-phenylethyl]-2H-indazol-4-yl}-5-methyl-4-(propan-2-yl)-1H-pyrazol-1-yl)-6-methyl-2H-pyrazolo[3,4-b]pyridin-2-yl]propyl}pyrrolidin-2-one]	30 K
CC(C)c1nc2nn(C)cc2cc1-c1nc(-c2cccc3nn(C[S@@+]([O-])c4ccccc4)cc23)c(C2CC2)n1C [Example 22, 2-{[(S)-benzenesulfinyl]methyl}-4-{5-cyclopropyl-1-methyl-2-[2-methyl-6-(propan-2-yl)-2H-pyrazolo[3,4-b]pyridin-5-yl]-1H-imidazol-4-yl}-2H-indazole]	33 K
